Where two headings read alike, the source gives them in different places.
Tests used:
human 5-HT2AR = target: T1, human 5-HT2AR (Homo sapiens, UniProt P28223); assay: HTRF-based IP1 accumulation assay (5-HT2AR antagonistic effect); type: cell-based; conditions: HEK293 cells overexpressing human 5-HT2AR; serotonin at EC80
T1 construct: expressed in transfected cells; host or cells: HEK293
How it was run: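 HEK293 cells stably overexpressing human 5-HT2AR were pre-incubated with compound (top 10 μM, serial dilutions, LiCl buffer) 10 min at room temperature, then stimulated with EC80 serotonin 30 min at 37 °C. IP1 accumulation was read by HTRF; IC50s came from activity normalized to serotonin and IP1 controls.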

mGluR5 = target: T2, mGluR5 (Homo sapiens, UniProt P41594); assay: Fluorescence-based Ca2+ mobilization assay; type: cell-based; conditions: HEK293 cells overexpressing mGluR5; L-glutamate at EC80
T2 construct: expressed in transfected cells; host or cells: HEK293
T2 sequence (P41594 21-1212): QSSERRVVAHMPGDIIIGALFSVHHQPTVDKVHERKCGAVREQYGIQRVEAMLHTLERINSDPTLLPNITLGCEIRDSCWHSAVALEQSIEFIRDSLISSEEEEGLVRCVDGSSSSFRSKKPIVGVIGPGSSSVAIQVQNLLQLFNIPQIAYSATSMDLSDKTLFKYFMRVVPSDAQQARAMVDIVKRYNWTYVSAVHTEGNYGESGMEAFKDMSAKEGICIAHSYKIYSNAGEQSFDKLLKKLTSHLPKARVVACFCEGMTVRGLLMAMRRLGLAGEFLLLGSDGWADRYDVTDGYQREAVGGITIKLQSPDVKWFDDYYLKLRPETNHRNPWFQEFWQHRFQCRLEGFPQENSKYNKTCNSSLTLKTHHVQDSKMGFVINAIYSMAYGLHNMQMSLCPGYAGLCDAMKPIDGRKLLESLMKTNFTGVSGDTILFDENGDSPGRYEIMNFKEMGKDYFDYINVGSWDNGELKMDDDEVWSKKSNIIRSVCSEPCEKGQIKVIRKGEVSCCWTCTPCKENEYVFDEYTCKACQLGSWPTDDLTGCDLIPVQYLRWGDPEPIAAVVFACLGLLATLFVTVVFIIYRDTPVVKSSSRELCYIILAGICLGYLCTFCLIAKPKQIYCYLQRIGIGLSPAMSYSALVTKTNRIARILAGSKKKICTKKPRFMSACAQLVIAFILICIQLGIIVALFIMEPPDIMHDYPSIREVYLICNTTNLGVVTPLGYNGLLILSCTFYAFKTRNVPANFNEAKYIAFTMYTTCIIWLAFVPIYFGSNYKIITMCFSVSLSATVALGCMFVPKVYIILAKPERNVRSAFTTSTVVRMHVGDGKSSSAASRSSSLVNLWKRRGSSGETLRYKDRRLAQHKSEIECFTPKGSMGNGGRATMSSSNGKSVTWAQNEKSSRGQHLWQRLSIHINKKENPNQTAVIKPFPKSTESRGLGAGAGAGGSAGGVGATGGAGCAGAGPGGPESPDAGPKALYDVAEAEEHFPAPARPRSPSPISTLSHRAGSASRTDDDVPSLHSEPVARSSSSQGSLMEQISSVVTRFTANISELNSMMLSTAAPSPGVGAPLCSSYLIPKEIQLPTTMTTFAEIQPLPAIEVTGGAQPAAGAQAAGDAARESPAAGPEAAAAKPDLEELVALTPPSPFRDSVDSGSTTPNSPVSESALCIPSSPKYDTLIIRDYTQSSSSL
How it was run: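 HEK293 cells stably overexpressing mGluR5, dye-loaded 60 min at 37 °C, then preincubated with compound 30 min at room temperature in the dark. Ca2+ response to L-glutamate at EC80 read on FLIPR for 2 min. Signal normalised to glutamate (100%) and vehicle (0%); IC50 from % inhibition.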

[1] = test system: physical (tactile) allodynia in spinal nerve ligation model; assay: Analgesic efficacy experiment using animal model (Chung model, spinal nerve ligation); type: in vivo, Sprague-Dawley rats; conditions: for inhibition in vivo at 100 mg/kg: 100 mpk
Protocol: The Chung model (spinal nerve ligation model) is a representative animal model to study neuropathic pain and is widely accepted as a gold standard for an animal pain model by global pharmaceutical companies around the world.
In this experiment, male Sprague-Dawley rats (100-120 g) purchased from Koatech (Pyeongtaek-si, Gyeonggi-do) were used. Rats were kept in a room maintained at constant temperature and humidity with a 12 hour light-dark cycle. Rats were allowed to eat and drink freely during the experiment.
For the Chung surgery, rats were anesthetized by isoflurane inhalation and the left lumbar nerves L5 and L6 were tightly tied with a suture thread (6-0 silk thread) at the end of the dorsal ganglion and at a front of an entrance to the sciatic nerve according to the article (Kim and Chung (1992), Pain 50(3):355-63). After suturing the incision, the rats were recovered for 2 weeks in the controlled maintenance room to induce physical allodynia in the left hind paw of the rat. To measure physical (tactile) allodynia, the rats were placed in a cage with a wire mesh on the bottom. Stimuli of increasing intensity (using the von Frey filaments in a range of 0.41 to 15.8 g) were placed on the plantar surface on the side of the nerve injury. The stimulus intensity at which the pain response (abrupt lifting, licking or sucking of the foot) was induced was recorded while applying gradual increment of stimuli. As described in the study of Chaplan et al. (1994) (Chaplan et al. (1994) J. Neurosci. Methods 53(1):55-63), the paw withdrawal threshold (PWT) was determined by increasing or decreasing continuous stimulus intensity, and the result was analyzed by applying Dixon's up-down method. Only rats showing no behavior dysfunction (e.g., feet dragging or dropping) were selected and included in the study, and the PWT of the rats used was 3.16 g or less.
After measuring the degree of basic reaction before drug injection, each compound and solvent were injected by oral administration (12.5-100 mg/kg), and the measurement was repeated at regular time intervals (60 and 120 minutes) after the drug was injected.
The experimenter conducted the PWT measurement in a blind condition not knowing which rat was administered with which drug. The control group was administered with gabapentin (65 mg/kg, intraperitoneal administration), and was randomly mixed during the measurement. Statistical analysis was performed on the measured pain response threshold by calculating the reversal rate (% reversal) from pain in Equation 1 below. […] Pain reversal rate (% reversal)=[(PWT after drug administration)−(PWT before drug administration)]*100/[(15 g, Estimated PWT in normal animals)−(PWT before drug administration)] [Equation 1]
The PWT used in this time is a value obtained by multiplying the gram, the unit of “force” measure, by 10,000, and taking the logarithm, which is a method generally used in academia.
Each experiment consisted of the compound group, the solvent group of the compound and the gabapentin (GBP) group as positive control group. As solvent of the compound, 0.5% HPMC (hydroxypropylmethyl cellulose) was used.

[2] = rat, oral, 50 mpk, 1 h, read-out: % reversal (1 h)
[3] = rat, oral, 50 mpk, 2 h, read-out: % reversal (2 h)
[4] = rat, oral, 1 h, read-out: % reversal (1 h)
[5] = rat, oral, 2 h, read-out: % reversal (2 h)
[6] = Rattus norvegicus, po, 1 h, read-out: % reversal (1 h)
[7] = Rattus norvegicus, po, 2 h, read-out: % reversal (2 h)
[8] = rat, oral, 25 mpk, 1 h, read-out: % reversal (1 h)
[9] = rat, oral, 25 mpk, 2 h, read-out: % reversal (2 h)

T1 sequence (P28223 whole entry): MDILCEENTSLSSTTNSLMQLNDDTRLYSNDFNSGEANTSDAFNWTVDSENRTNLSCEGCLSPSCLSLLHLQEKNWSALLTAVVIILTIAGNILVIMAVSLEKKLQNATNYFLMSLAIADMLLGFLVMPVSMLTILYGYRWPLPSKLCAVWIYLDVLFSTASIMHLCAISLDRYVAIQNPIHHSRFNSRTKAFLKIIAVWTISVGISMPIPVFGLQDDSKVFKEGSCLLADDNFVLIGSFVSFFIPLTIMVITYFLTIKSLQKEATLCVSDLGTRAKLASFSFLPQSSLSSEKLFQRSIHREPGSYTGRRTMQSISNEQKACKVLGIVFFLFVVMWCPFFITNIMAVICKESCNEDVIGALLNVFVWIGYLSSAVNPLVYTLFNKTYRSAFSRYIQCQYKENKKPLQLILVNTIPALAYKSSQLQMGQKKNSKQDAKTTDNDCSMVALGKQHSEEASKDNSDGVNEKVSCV

IC50 (human 5-HT2AR) [µM] | IC50 (mGluR5) [µM] | SMILES | inhibition in vivo at 50 mg/kg [1, 2] [%] | inhibition in vivo at 50 mg/kg [1, 3] [%] | also measured
0.1 to 0.5 | 0.5 to 1 | O=C(NCC1(NC2CC2)CCCCCC1)c1ccc(C#Cc2ccncc2F)cc1 [Example 16, N-((1-(cyclopropylamino)cycloheptyl)methyl)-4-((3-fluoropyridin-4-yl)ethynyl)benzamide] | 61 | 95.8 | –
0.1 to 0.5 | < 0.1 | O=C(NCC1CCOC1)c1ccc(C#Cc2ccccc2F)cc1 (centres unmarked) [Example 43, 4-((2-fluorophenyl)ethynyl)-N-((tetrahydrofuran-3-yl)methyl)benzamide] | 72.9 | 90.8 | –
< 0.1 | 0.5 to 1 | O=C(NCC1CCOCC1)c1ccc(C#Cc2ccc(F)cc2F)cc1 [Example 44, 4-((2,4-difluorophenyl)ethynyl)-N-((tetrahydro-2H-pyran-4-yl)methyl)benzamide] | 3.45 | 9.13 | –
0.1 to 0.5 | < 0.1 | O=C(NCC1CCCOC1)c1ccc(C#Cc2ccccc2F)cc1 (centres unmarked) [Example 40, 4-((2-fluorophenyl)ethynyl)-N-((tetrahydro-2H-pyran-3-yl)methyl)benzamide] | 103 | 111 | –
0.1 to 0.5 | < 0.1 | CC(NC(=O)c1ccc(C#Cc2ccccc2F)cc1)C1CCOCC1 (centres unmarked) [Example 42, 4-((2-fluorophenyl)ethynyl)-N-(1-(tetrahydro-2H-pyran-4-yl)ethyl)benzamide] | – | – | inhibition in vivo at 100 mg/kg [1, 4]: 82.9%; inhibition in vivo at 100 mg/kg [1, 5]: 88.1%
0.1 to 0.5 | < 0.1 | O=C(NCC1CCOCC1)c1ccc(C#Cc2ccccc2F)cc1 [Example 27, 4-((2-fluorophenyl)ethynyl)-N-((tetrahydro-2H-pyran-4-yl)methyl)benzamide] | 70.3 | 66.3 | –
0.1 to 0.5 | 0.1 to 0.5 | O=C(NCC1(NC2CC2)CCC1)c1ccc(C#Cc2ccncc2)cc1F [Example 10, N-((1-(cyclopropylamino)cyclobutyl)methyl)-2-fluoro-4-(pyridin-4-ylethynyl)benzamide] | 44.9 | 36.1 | –
0.5 to 1 | 0.5 to 1 | O=C(NCC1(O)COC1)c1ccc(C#Cc2ccccc2F)cc1 [Example 82, 4-((2-fluorophenyl)ethynyl)-N-((3-hydroxyoxetan-3-yl)methyl)benzamide] | 70.3 | 89.1 | –
0.1 to 0.5 | 1 to 2 | O=C(NCC1(NC2CC2)CCCCCC1)c1ccc(C#Cc2ccccn2)cc1 [Example 1, N-((1-(cyclopropylamino)cycloheptyl)methyl)-4-(pyridin-2-ylethynyl)benzamide] | – | – | inhibition in vivo at 100 mg/kg [1, 4]: 60.5%; inhibition in vivo at 100 mg/kg [1, 5]: 85.7%
0.1 to 0.5 | < 0.1 | O=C(NCC1CCOCC1)c1ccc(C#Cc2ccccc2)cc1 [Example 49, 4-(phenylethynyl)-N-((tetrahydro-2H-pyran-4-yl)methyl)benzamide] | – | – | inhibition in vivo at 25 mg/kg [1, 8]: 28.5%; inhibition in vivo at 25 mg/kg [1, 9]: 22%
0.1 to 0.5 | < 0.1 | CC1(CNC(=O)c2ccc(C#Cc3ccccc3F)cc2)COC1 [Example 52, 4-((2-fluorophenyl)ethynyl)-N-((3-methyloxetan-3-yl)methyl)benzamide] | – | – | inhibition in vivo at 100 mg/kg [1, 4]: 90.8%; inhibition in vivo at 100 mg/kg [1, 5]: 101%
0.1 to 0.5 | < 0.1 | CC1(CNC(=O)c2ccc(C#Cc3ccc(F)cc3)cc2)COC1 [Example 83, 4-((4-fluorophenyl)ethynyl)-N-((3-methyloxetan-3-yl)methyl)benzamide] | – | – | inhibition in vivo at 25 mg/kg [1, 8]: 55%; inhibition in vivo at 25 mg/kg [1, 9]: 67.8%
0.5 to 1 | < 0.1 | COC1(CNC(=O)c2ccc(C#Cc3ccccc3F)cc2)CCOCC1 [Example 66, 4-((2-fluorophenyl)ethynyl)-N-((4-methoxytetrahydro-2H-pyran-4-yl)methyl)benzamide] | – | – | inhibition in vivo at 25 mg/kg [1, 8]: 64.1%; inhibition in vivo at 25 mg/kg [1, 9]: 43.2%
< 0.1 | 0.1 to 0.5 | O=C(NCC1(NC2CC2)CCOCC1)c1ccc(C#Cc2ccccc2F)cc1 [Example 22, N-((4-(cyclopropylamino)tetrahydro-2H-pyran-4-yl)methyl)-4-((2-fluorophenyl)ethynyl)benzamide] | 19.3 | 77.5 | –
0.5 to 1 | < 0.1 | O=C(NCC1CCCC(O)C1)c1ccc(C#Cc2ccccc2F)cc1 (centres unmarked) [Example 64, 4-((2-fluorophenyl)ethynyl)-N-((3-hydroxycyclohexyl)methyl)benzamide] | 10.4 | 45.2 | –
0.1 to 0.5 | < 0.1 | O=C(NCC1COCCO1)c1ccc(C#Cc2ccccc2F)cc1 (centres unmarked) [Example 51, N-((1,4-dioxan-2-yl)methyl)-4-((2-fluorophenyl)ethynyl)benzamide] | 5.97 | 14.5 | –
0.5 to 1 | < 0.1 | O=C(NCC1CCC(F)(F)CC1)c1ccc(C#Cc2ccncc2)cc1 [Example 88, N-((4,4-difluorocyclohexyl)methyl)-4-(pyridin-4-ylethynyl)benzamide] | 97.8 | 110 | –
1 to 2 | 0.1 to 0.5 | O=C(NCC1(CCCO)CCCCC1)c1ccc(C#Cc2ccccc2F)cc1 [Example 62, 4-((2-fluorophenyl)ethynyl)-N-((1-(3-hydroxypropyl)cyclohexyl)methyl)benzamide] | – | – | –
0.5 to 1 | 0.1 to 0.5 | COC(=O)CC1(CNC(=O)c2ccc(C#Cc3ccccc3F)cc2)CCOCC1 [Example 75, methyl 2-(4-((4-((2-fluorophenyl)ethynyl)benzamido)methyl)tetrahydro-2H-pyran-4-yl)acetate] | – | – | –
0.1 to 0.5 | < 0.1 | C[C@@H](NC(=O)c1ccc(C#Cc2ccccc2F)cc1)C1CCOCC1 [Example 47, (R)-4-((2-fluorophenyl)ethynyl)-N-(1-(tetrahydro-2H-pyran-4-yl)ethyl)benzamide] | – | – | –

SMILES | IC50 (human 5-HT2AR) [µM] | IC50 (mGluR5) [µM] | inhibition in vivo at 50 mg/kg [1, 2] [%] | inhibition in vivo at 50 mg/kg [1, 3] [%] | also measured
O=C(NC[C@H]1CCCOC1)c1ccc(C#Cc2ccccc2F)cc1 [Example 92, (R)-4-((2-fluorophenyl)ethynyl)-N-((tetrahydro-2H-pyran-3-yl)methyl)benzamide] | 0.1 to 0.5 | < 0.1 | – | – | inhibition in vivo at 25 mg/kg [1, 6]: 39.8%; inhibition in vivo at 25 mg/kg [1, 7]: 48.7%
COC1(CNC(=O)c2ccc(C#Cc3ccccc3F)cc2)CCCCC1 [Example 65, 4-((2-fluorophenyl)ethynyl)-N-((1-methoxycyclohexyl)methyl)benzamide] | 0.5 to 1 | < 0.1 | – | – | inhibition in vivo at 50 mg/kg [1, 6]: 34%; inhibition in vivo at 50 mg/kg [1, 7]: 80.8%
O=C(NCC1CC(F)(F)C1)c1ccc(C#Cc2ccccc2F)cc1 [Example 56, N-((3,3-difluorocyclobutyl)methyl)-4-((2-fluorophenyl)ethynyl)benzamide] | 0.1 to 0.5 | < 0.1 | – | – | inhibition in vivo at 50 mg/kg [1, 6]: 47.4%; inhibition in vivo at 50 mg/kg [1, 7]: 43.6%

— US12435051B2, “Dual modulator of mGluR5 and 5-HT2A receptor, and use thereof” (Vivozon Inc., priority 2020, dated 2025)
